Experiments:
human GST-CLK1 (129-end) = target: T1, human GST-CLK1 (129-end) (Homo sapiens, UniProt P49759); test: GST-CLK1 enzyme inhibition, ADP-Glo kinase assay; type: biochemical; conditions: ATP 10 uM
T1 construct: purified human GST-CLK1 (129-end, Signalchem) enzyme; GST; purchased Signalchem
How it was run: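 GST-CLK1 (129-end, 3 ng) reacted with 10 uM ATP and substrate in 40 mM Tris-HCl pH 7.4, 20 mM MgCl2, 0.5 mg/mL BSA, 50 uM DTT, 1 h at 25° C. ADP-Glo luminescence normalised to solvent control; IC50 from triplicate data.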

[1] = target: T2, LRRK2, LRRK2 (G2019S), DYRK1, CLK1 and TTK kinases (Homo sapiens, UniProt Q13627); test: Enzyme IC50 by Kinase HotSpot service (Reaction Biology Corporation), values marked with *; type: biochemical; conditions: DYRK1, ATP 10 uM
T2 construct: other: DYRK1; Kinase HotSpot service (Reaction Biology), ATP 10 uM
Protocol: Meanwhile, the enzyme IC50 measurement for some compounds was performed using Kinase HotSpot service (Reaction Biology Corporation); during the test, the ATP concentration was 10 uM, where all were conducted under the same condition; and the concentration of the compound was measured by giving a 3-fold concentration gradient with the highest concentration of […], where the values measured using Kinase HotSpot service (Reaction Biology Corporation) were marked with “*”.
All experimental methods were performed as provided in Kinase HotSpot Customer Protocol (http://www.reactionbiology.com//Kinase_Assay_Protocol).
In the table below, the following designations were used for the evaluation of enzyme inhibitory ability.

TNF-α = TNF-α secretion inhibition in LPS-treated THP-1 cells (ELISA); type: cell-based; conditions: Homo sapiens, compound 0.5 μM, LPS 500 ng/ml, 24 hours, read-out: THP-1/TNF-a (% inhib)
Protocol: (§1) In order to evaluate the cytokine secretion inhibitory efficacy of mononuclear cells, THP-1 cells (ATCC, #TIB-202) as a human-derived monocyte cell line were cultured in RPMI-1640 (Hyclone, SH30027.01) media in which 10% fetal bovine serum (Hyclone, SH30084.03), 1% penicillin streptomycin (Welgene, LS202-02) and 50 μM 2-Mercaptoethanol (Gibco, #21985023) were contained. In the test, 1.5-2×10^5 cells/250 μl per each well were dispensed in a 48-well plate (SPL, #30048) and incubated in an incubator at 37° C. and 5% CO2 for 16 hours, and then the compounds were diluted in DMSO so that the final concentration was 0.5 μM. It was treated with Lipopolysaccharides (LPS) (sigma, #L6529) […]. After treatment with the compound, the LPS was treated so that the final concentration was 500 ng/ml, and then the cell culture fluid was collected after culturing for 24 hours, and the degrees of the cytokines IL-6 (R&D system, #D6050) and TNF-α (R&D system, #DTA00D) contained in the culture fluid were collected using each ELISA kit. After performing the experiment according to the manufacturer's instructions, the absorbance at 450 nm was measured and analyzed using a microplate reader.

IL-6 = IL-6 secretion inhibition in LPS-treated THP-1 cells (ELISA); type: cell-based; conditions: Homo sapiens, compound 0.5 μM, LPS 500 ng/ml, 24 hours, read-out: THP1/IL6 (% inhib)
Protocol: as §1

LRRK2 (G2019S) = LRRK2 (G2019S) (Homo sapiens, UniProt Q5S007, G2019S); test: LRRK2 G2019S enzyme inhibition, ADP-Glo kinase assay; type: biochemical; design: purchased SignalChem L10-12GG
Chain of LRRK2 (G2019S) (Q5S007 970-2527 G2019S limits assumed): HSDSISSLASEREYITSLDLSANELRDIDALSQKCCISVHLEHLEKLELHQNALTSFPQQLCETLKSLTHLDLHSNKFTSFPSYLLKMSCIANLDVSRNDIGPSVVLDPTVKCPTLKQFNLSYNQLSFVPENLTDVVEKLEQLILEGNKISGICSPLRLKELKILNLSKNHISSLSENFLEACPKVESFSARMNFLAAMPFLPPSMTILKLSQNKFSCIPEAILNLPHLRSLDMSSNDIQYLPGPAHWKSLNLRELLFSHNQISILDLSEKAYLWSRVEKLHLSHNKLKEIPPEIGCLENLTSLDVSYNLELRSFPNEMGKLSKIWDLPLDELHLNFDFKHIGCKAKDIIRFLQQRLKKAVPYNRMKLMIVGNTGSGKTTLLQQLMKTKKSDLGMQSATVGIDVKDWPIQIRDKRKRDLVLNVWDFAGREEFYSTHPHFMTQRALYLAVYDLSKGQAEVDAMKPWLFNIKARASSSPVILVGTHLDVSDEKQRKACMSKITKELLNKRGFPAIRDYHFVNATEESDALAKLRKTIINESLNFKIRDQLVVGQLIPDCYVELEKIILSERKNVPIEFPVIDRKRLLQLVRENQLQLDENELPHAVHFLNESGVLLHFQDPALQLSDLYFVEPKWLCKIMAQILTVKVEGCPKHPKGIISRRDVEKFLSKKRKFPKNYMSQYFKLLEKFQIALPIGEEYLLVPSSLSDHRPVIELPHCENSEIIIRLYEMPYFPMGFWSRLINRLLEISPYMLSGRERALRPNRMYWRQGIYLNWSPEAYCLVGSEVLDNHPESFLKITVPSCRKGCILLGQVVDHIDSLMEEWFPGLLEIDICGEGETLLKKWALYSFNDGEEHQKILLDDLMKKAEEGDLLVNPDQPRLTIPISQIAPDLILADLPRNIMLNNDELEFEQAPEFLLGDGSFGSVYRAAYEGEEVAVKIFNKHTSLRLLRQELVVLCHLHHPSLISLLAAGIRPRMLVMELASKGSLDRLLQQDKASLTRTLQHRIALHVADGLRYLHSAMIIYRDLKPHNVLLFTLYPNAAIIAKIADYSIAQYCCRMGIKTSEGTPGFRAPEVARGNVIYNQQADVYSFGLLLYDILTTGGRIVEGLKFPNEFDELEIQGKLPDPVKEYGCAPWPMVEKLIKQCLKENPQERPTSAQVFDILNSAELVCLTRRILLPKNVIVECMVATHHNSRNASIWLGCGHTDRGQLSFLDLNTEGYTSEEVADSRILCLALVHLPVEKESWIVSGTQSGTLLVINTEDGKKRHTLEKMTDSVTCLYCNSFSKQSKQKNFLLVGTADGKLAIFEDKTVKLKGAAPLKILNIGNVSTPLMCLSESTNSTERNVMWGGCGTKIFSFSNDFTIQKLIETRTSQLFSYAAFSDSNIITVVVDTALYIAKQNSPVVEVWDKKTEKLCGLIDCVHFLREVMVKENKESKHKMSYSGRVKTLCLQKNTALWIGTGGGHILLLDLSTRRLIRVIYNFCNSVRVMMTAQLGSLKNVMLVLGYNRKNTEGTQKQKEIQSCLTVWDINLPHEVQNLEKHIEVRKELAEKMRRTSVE
How it was run: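 Purified human LRRK2 G2019S (16 ng) with 25 μM ATP and 0.2 μg substrate, 2 h at 25° C in 40 mM Tris-HCl pH 7.4, 20 mM MgCl2, 0.5 mg/ml BSA, 50 μM DTT; compound at 12 final concentrations from 50 μM downward. ADP-Glo luminescence versus solvent control gave IC50 (nM).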

[2] = target: T3, human GST-DYRK1A (full length) (Homo sapiens, UniProt Q13627); test: GST-DYRK1A enzyme inhibition, ADP-Glo kinase assay; type: biochemical; conditions: read-out: DYRK1 IC50
T3 construct: purified human GST-DYRK1A (full length, Thermo scientifics) enzyme; GST; purchased Thermo scientifics
How it was run: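 Full-length human GST-DYRK1A (10 ng) incubated with 10 uM ATP and specific substrate for 1 h at 25° C in 40 mM Tris-HCl pH 7.4, 20 mM MgCl2, 0.5 mg/mL BSA, 50 uM DTT. ADP formation read by ADP-Glo luminescence; IC50 (nM) versus solvent control, triplicate.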

human DYRK1A and Tau = test: Tau phosphorylation inhibition, ClariCELL Kinase Cell-Based Assay (Carnabio)
Protocol: Tau phosphorylation inhibitory efficacy was measured using the ClariCELL™ Kinase Cell-Based Assay service of Carnabio, located in the United States. The compounds are exposed to human embryonic kidney ([…]) cells transiently expressing human DYRK1A and Tau, and then the cells are lysed to release cellular proteins. At this time, the released Tau is captured on a plate, and the degree of phosphorylation is quantified by ELISA using an antibody specific for Tau phosphorylation.

MDA-MB-231 cell line = test: MDA-MB-231 cancer cell proliferation inhibition (Cell Titer-Glo); type: cell-based; conditions: Homo sapiens, MDA-MB-231 triple-negative breast cancer cell line, 72 hours
How it was run: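 GI50 comes from CellTiter-Glo luminescence, read 10 min after reagent addition at RT, following 72 h compound treatment. Eleven concentrations were used (⅓ steps, highest 10 μM final) on 2000 cells/well. MDA-MB-231 and MDA-MB-468 were grown in DMEM, SHP-77 in RPMI.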

LRRK2 = LRRK2 (Homo sapiens, UniProt Q5S007); test: LRRK2 enzyme inhibition, ADP-Glo kinase assay; type: biochemical; design: purchased Invitrogen PR8604B
Chain of LRRK2 (Q5S007 970-2527 limits assumed): as the sequence (Q5S007 970-2527 G2019S limits assumed) above, with S1050G counted along it
How it was run: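 Purified human LRRK2 (25 ng) in 40 mM Tris-HCl pH7.4, 20 mM MgCl2, 0.5 mg/ml BSA, 50 μM DTT with 10 μM ATP and substrate ([…]), 2 h at 25° C. Final compound 50 to 0.000001024 μM, 12-point dilution. ADP-Glo luminescence vs solvent control; IC50 (nM).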

T1 sequence (P49759 129-484 limits assumed): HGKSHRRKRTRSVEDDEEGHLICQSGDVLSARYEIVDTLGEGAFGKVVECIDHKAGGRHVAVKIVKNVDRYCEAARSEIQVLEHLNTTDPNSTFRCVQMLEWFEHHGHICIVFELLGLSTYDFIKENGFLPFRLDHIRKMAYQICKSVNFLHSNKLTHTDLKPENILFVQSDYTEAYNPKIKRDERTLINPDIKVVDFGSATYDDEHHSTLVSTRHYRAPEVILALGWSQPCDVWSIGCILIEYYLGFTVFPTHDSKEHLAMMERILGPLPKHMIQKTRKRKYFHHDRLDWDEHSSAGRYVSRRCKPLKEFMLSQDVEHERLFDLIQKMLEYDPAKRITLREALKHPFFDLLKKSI

SMILES	IC50 (human GST-CLK1 (129-end)) [nM]	IC50 [1] [nM]	inhibition at 0.5 µM (TNF-α) [%]	inhibition at 0.5 µM (IL-6) [%]	IC50 (LRRK2 (G2019S)) [nM]	IC50 [2] [nM]	inhibition at 0.25 µM (human DYRK1A and Tau) [%]	inhibition at 0.5 µM (human DYRK1A and Tau) [%]	inhibition at 1 µM (human DYRK1A and Tau) [%]	GI50 (MDA-MB-231 cell line) [nM]	IC50 (LRRK2) [nM]
COc1cc(P(C)(C)=O)ccc1Nc1cc(C2CC2)c2c(C(F)(F)F)c[nH]c2n1 [Example 219, (4-((4-cyclopropyl-3-(trifluoromethyl)-1H-pyrrolo[2,3-b]pyridin-6-yl)amino)-3-methoxyphenyl) dimethylphosphine oxide]	301 to 1000	< 100	–	–	–	–	–	–	–	–	–
CCNc1cc(Nc2ccc(C(=O)N3CCN(CC4CC4)CC3)c3c2OCC3)nc2[nH]cc(C(F)(F)F)c12 [Example 257, (4-(cyclopropylmethyl)piperazin-1-yl)(7-((4-(ethylamino)-3-(trifluoromethyl)-1H-pyrrolo[2,3-b]pyridin-6-yl)amino)-2,3-dihydrobenzofuran-4-yl)methanone]	< 100	–	7.88	44	< 100	< 100	–	–	–	–	–
CCNc1cc(Nc2ccc(C(=O)N3CCC(N(C)C)CC3)c3c2OCC3)nc2[nH]cc(C(F)(F)F)c12 [Example 249, (4-(dimethylamino)piperidin-1-yl)(7-((4-(ethylamino)-3-(trifluoromethyl)-1H-pyrrolo[2,3-b]pyridin-6-yl)amino)-2,3-dihydrobenzofuran-4-yl)methanone]	< 100	–	10.1	60.3	< 100	< 100	62.4	76.9	82.9	–	–
CNc1cc(Nc2ccc(P3(=O)CCN(C4COC4)CC3)cc2OC)nc2[nH]cc(C(F)(F)F)c12 [Example 212, 4-(3-methoxy-4-((4-(methylamino)-3-(trifluoromethyl)-1H-pyrrolo[2,3-b]pyridin-6-yl)amino)phenyl)-1-(oxetan-3-yl)-1,4-azaphosphinane 4-oxide]	< 100	–	2.7	29.1	–	< 100	–	–	–	301 to 1000	< 100
CCNc1cc(Nc2ccc(C(=O)N3CCC(N4CCN(C5CC5)CC4)CC3)c3c2OCC3)nc2[nH]cc(C(F)(F)F)c12 [Example 264, (4-(4-cyclopropylpiperazin-1-yl)piperidin-1-yl)(7-((4-(ethylamino)-3-(trifluoromethyl)-1H-pyrrolo[2,3-b]pyridin-6-yl)amino)-2,3-dihydrobenzofuran-4-yl)methanone]	< 100	–	11.2	45.5	< 100	< 100	–	–	–	–	–
CCNc1cc(Nc2ccc(C(=O)N3CCC(N4CCN(C)CC4)CC3)c3c2OCC3)nc2[nH]cc(C(F)(F)F)c12 [Example 247, (7-((4-(ethylamino)-3-(trifluoromethyl)-1H-pyrrolo[2,3-b]pyridin-6-yl)amino)-2,3-dihydrobenzofuran-4-yl)(4-(4-methylpiperazin-1-yl)piperidin-1-yl)methanone]	< 100	–	15.5	31.9	< 100	< 100	52.3	76.8	104	–	–
COCCNc1cc(Nc2ccc(C(=O)N3CCOCC3)c3c2OCC3)nc2[nH]cc(C(F)(F)F)c12 [Example 54, (7-((4-((2-methoxyethyl)amino)-3-(trifluoromethyl)-1H-pyrrolo[2,3-b]pyridin-6-yl)amino)-2,3-dihydrobenzofuran-4-yl)(morpholino) methanone]	< 100	–	–	46.9	< 100	< 100	–	–	–	–	< 100
CNc1cc(Nc2ccc(C(=O)N3CCOCC3)c3c2OCO3)nc2[nH]cc(C(F)(F)F)c12 [Example 38, (7-((4-(methylamino)-3-(trifluoromethyl)-1H-pyrrolo[2,3-b]pyridin-6-yl)amino)benzo [d] [1,3]dioxol-4-yl)(morpholino) methanone]	< 100	–	32.8	36.1	< 100	< 100	–	–	–	–	101 to 300
CS(=O)(=O)CCNc1cc(Nc2ccc(C(=O)N3CCOCC3)c3c2OCCO3)nc2[nH]cc(C(F)(F)F)c12 [Example 157, (8-((4-((2-(methylsulfonyl)ethyl)amino)-3-(trifluoromethyl)-1H-pyrrolo[2,3-b]pyridin-6-yl)amino)-2,3-dihydrobenzo [b] [1,4]dioxin-5-yl)(morpholino) methanone]	< 100	–	31	29.1	< 100	< 100	–	–	–	–	< 100
CCNc1cc(Nc2ccc(C(=O)N3CC[C@@H](N4CCOCC4)C3)c3c2OCC3)nc2[nH]cc(C(F)(F)F)c12 [Example 213, (R)-(7-((4-(ethylamino)-3-(trifluoromethyl)-1H-pyrrolo[2,3-b]pyridin-6-yl)amino)-2,3-dihydrobenzofuran-4-yl)(3-morpholinopyrrolidin-1-yl)methanone]	< 100	–	2.6	3.9	101 to 300	101 to 300	–	–	–	–	101 to 300
CCNc1cc(Nc2ccc(C(=O)N3CCN(CCO)CC3)c3c2OCC3)nc2[nH]cc(C(F)(F)F)c12 [Example 253, (7-((4-(ethylamino)-3-(trifluoromethyl)-1H-pyrrolo[2,3-b]pyridin-6-yl)amino)-2,3-dihydrobenzofuran-4-yl)(4-(2-hydroxyethyl)piperazin-1-yl)methanone]	< 100	–	9.83	49.2	< 100	< 100	–	–	–	–	–
CNc1cc(Nc2ccc(C(=O)N3CCC(N4CCOCC4)CC3)c3c2OCO3)nc2[nH]cc(C(F)(F)F)c12 [Example 235, (7-((4-(methylamino)-3-(trifluoromethyl)-1H-pyrrolo[2,3-b]pyridin-6-yl)amino)benzo[d][1,3]dioxol-4-yl)(4-morpholinopiperidin-1-yl)methanone]	< 100	–	36.3	22.9	–	< 100	–	–	–	–	< 100
